The results in this text go back to the Kinase Knowledgebase extract (Sharma et al. 2016).

Each structure is given as a SMILES string. Bounds are passed on as bounds.

For this assay, the target named is EGFR (human) (UniProt P00533). The settings on record: a431.
EGFR (human), sequence (P00533 whole entry, looked up): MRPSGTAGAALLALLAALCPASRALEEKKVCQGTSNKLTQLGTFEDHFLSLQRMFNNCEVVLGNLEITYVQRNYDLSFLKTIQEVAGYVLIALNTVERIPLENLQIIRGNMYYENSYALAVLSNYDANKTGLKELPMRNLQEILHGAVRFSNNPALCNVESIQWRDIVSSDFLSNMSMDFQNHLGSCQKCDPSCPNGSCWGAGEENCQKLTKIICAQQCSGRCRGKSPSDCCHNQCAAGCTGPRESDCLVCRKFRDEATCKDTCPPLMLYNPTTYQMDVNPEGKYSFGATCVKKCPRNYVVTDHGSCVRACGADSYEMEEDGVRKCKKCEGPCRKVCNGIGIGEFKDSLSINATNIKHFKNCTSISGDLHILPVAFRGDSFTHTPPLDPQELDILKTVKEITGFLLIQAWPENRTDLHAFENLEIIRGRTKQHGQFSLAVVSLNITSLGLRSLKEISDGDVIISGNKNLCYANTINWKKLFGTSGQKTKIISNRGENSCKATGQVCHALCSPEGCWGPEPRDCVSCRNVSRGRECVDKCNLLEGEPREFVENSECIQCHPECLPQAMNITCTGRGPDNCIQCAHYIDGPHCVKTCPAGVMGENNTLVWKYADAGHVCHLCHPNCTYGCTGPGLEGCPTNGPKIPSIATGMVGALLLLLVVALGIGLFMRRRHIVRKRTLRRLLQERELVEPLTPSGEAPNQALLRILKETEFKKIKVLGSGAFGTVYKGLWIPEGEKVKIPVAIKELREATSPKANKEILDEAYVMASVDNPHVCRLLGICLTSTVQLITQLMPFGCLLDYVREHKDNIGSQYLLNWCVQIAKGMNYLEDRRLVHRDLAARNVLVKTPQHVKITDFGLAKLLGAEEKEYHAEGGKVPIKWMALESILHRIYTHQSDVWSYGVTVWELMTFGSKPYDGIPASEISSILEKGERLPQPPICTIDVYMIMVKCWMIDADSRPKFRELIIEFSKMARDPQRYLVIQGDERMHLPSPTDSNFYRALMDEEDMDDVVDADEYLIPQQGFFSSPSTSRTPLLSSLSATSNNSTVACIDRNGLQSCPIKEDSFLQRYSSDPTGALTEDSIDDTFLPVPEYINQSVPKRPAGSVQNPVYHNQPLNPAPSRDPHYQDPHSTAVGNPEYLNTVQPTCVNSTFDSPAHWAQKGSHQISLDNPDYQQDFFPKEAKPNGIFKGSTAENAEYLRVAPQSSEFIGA

One may read the IC50 as the midpoint of a concentration-inhibition curve. Read a high IC50 as lower potency. The compound `C/C(=C/c1coc2nc(N)nc(N)c12)c1cc(Cl)ccc1Cl` yielded an IC50 above 50 µM. On to `C/C(=C\c1coc2nc(N)nc(N)c12)c1ccc2c(c1)Cc1ccccc1-2`, for which the IC50 is above 50 µM. In the case of `COc1ccc(OC)c(/C(C)=C/c2coc3nc(N)nc(N)c23)c1` it was above 50 µM; in that of `C/C(=C/c1coc2nc(N)nc(N)c12)c1ccc(Cl)cc1.C/C(=C\c1coc2nc(N)nc(N)c12)c1ccc(Cl)cc1`, above 50 µM; in that of `C/C(=C/c1coc2nc(N)nc(N)c12)c1ccc(Cl)c(Cl)c1.C/C(=C\c1coc2nc(N)nc(N)c12)c1ccc(Cl)c(Cl)c1`, above 50 µM. `C/C(=C/c1coc2nc(N)nc(N)c12)c1ccc(-c2ccccc2)cc1.C/C(=C\c1coc2nc(N)nc(N)c12)c1ccc(-c2ccccc2)cc1` had a half-inhibitory concentration (IC50) above 50 µM. As for `COc1cc(/C(C)=C/c2coc3nc(N)nc(N)c23)cc(OC)c1OC.COc1cc(/C(C)=C\c2coc3nc(N)nc(N)c23)cc(OC)c1OC`, the IC50 was above 50 µM.

`C/C(=C\c1coc2nc(N)nc(N)c12)c1ccc(Cl)c(Cl)c1Cl` showed an IC50 above 50 µM. Turning to `C/C(=C\c1coc2nc(N)nc(N)c12)c1ccc(Cl)cc1Cl`, the IC50 was above 50 µM. Compound `C/C(=C/c1coc2nc(N)nc(N)c12)c1ccc(Cl)c(Cl)c1Cl.C/C(=C\c1coc2nc(N)nc(N)c12)c1ccc(Cl)c(Cl)c1Cl` had an IC50 above 50 µM. In turn, `COc1ccccc1/C(C)=C/c1coc2nc(N)nc(N)c12` came in with a 50% inhibitory concentration (IC50) above 50 µM. As for `C/C(=C\c1coc2nc(N)nc(N)c12)c1cc(Cl)ccc1Cl`, the IC50 was above 50 µM.

In turn, `C/C(=C/c1coc2nc(N)nc(N)c12)c1ccc2ccccc2c1.C/C(=C\c1coc2nc(N)nc(N)c12)c1ccc2ccccc2c1` had a concentration for half-maximal inhibition (IC50) above 50 µM. For the compound `C/C(=C\c1coc2nc(N)nc(N)c12)c1cccc(Cl)c1`, the IC50 was above 50 µM.
